Source: patent publication US10167262B2, “Herbicidal substituted 3-arylpyrazoles” (FMC CORPORATION, priority 2014, dated 2019)

Tested on: barnyardgrass (Echinochloa crus-galli)
Experiment: Test B flooded paddy test, plant response rating 0-100
Type: in vivo
Conditions: Flood, 250 g ai/ha; scale 0 to 100 (0 no effect, 100 complete control); 13 to 15 days
Summary of the method: (§1)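 Pots were flooded to 3 cm above the soil surface at treatment, compound applied directly to the paddy water, and that depth held throughout. Plants were kept in a greenhouse for 13 to 15 days, then visually rated against untreated controls.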

SMILES	Plant response rating, Barnyardgrass
O=C(c1ccccc1)c1cn(S(=O)(=O)CC(F)(F)F)nc1-c1cc(Cl)cc(Cl)c1 [Compound 3]	0

Tested on: ducksalad (Heteranthera limosa)
Experiment: as above
Type: in vivo
Conditions: Flood, 250 g ai/ha; scale 0 to 100 (0 no effect, 100 complete control); 13 to 15 days
Summary of the method: as §1

SMILES	Plant response rating, Ducksalad
O=C(c1ccccc1)c1cn(S(=O)(=O)CC(F)(F)F)nc1-c1cc(Cl)cc(Cl)c1 [Compound 3]	0

Tested on: rice (Oryza sativa)
Experiment: as above
Type: in vivo
Conditions: Flood, 250 g ai/ha; scale 0 to 100 (0 no effect, 100 complete control); 13 to 15 days
Summary of the method: as §1

SMILES	Plant response rating, Rice
O=C(c1ccccc1)c1cn(S(=O)(=O)CC(F)(F)F)nc1-c1cc(Cl)cc(Cl)c1 [Compound 3]	0

Tested on: sedge, umbrella (small-flower umbrella sedge, Cyperus difformis)
Experiment: as above
Type: in vivo
Conditions: Flood, 250 g ai/ha; scale 0 to 100 (0 no effect, 100 complete control); 13 to 15 days
Summary of the method: as §1

SMILES	Plant response rating, Sedge, Umbrella
O=C(c1ccccc1)c1cn(S(=O)(=O)CC(F)(F)F)nc1-c1cc(Cl)cc(Cl)c1 [Compound 3]	0

Tested on: barnyardgrass (Echinochloa crus-galli)
Experiment: Test C pre-/postemergence greenhouse test, plant response rating 0-100
Type: in vivo
Conditions: Postemergence, 62 g ai/ha
Summary of the method: (§2)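 Plants were treated either at seeding (soil of loam and sand) or as 2–18 cm seedlings in a sphagnum peat mix, using test chemicals in a surfactant-containing non-phytotoxic solvent. Visual assessment relative to controls followed 13–15 days later.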

SMILES	Plant response rating (0 to 100), Barnyardgrass
O=C(c1ccccc1)c1cn(S(=O)(=O)CC(F)(F)F)nc1-c1cc(Cl)cc(Cl)c1 [Compound 3]	0

Same assay, conditions: Postemergence, 125 g ai/ha; scale 0 to 100

SMILES	Plant response rating, Barnyardgrass
O=C(c1ccccc1)c1cn(S(=O)(=O)CC(F)(F)F)nc1-c1cc(Cl)cc(Cl)c1 [Compound 3]	0

Same assay, conditions: Postemergence, 250 g ai/ha; scale 0 to 100

SMILES	Plant response rating, Barnyardgrass
O=C(c1ccccc1)c1cn(S(=O)(=O)CC(F)(F)F)nc1-c1cc(Cl)cc(Cl)c1 [Compound 3]	5

Same assay, conditions: Postemergence, 500 g ai/ha; scale 0 to 100

SMILES	Plant response rating, Barnyardgrass
O=C(c1ccccc1)c1cn(S(=O)(=O)CC(F)(F)F)nc1-c1cc(Cl)cc(Cl)c1 [Compound 3]	10

Same assay, conditions: Preemergence, 62 g ai/ha

SMILES	Plant response rating, Barnyardgrass
O=C(c1ccccc1)c1cn(S(=O)(=O)CC(F)(F)F)nc1-c1cc(Cl)cc(Cl)c1 [Compound 3]	0

Same assay, conditions: Preemergence, 125 g ai/ha

SMILES	Plant response rating, Barnyardgrass
O=C(c1ccccc1)c1cn(S(=O)(=O)CC(F)(F)F)nc1-c1cc(Cl)cc(Cl)c1 [Compound 3]	0

Same assay, conditions: Preemergence, 250 g ai/ha

SMILES	Plant response rating, Barnyardgrass
O=C(c1ccccc1)c1cn(S(=O)(=O)CC(F)(F)F)nc1-c1cc(Cl)cc(Cl)c1 [Compound 3]	0

Same assay, conditions: Preemergence, 500 g ai/ha

SMILES	Plant response rating, Barnyardgrass
O=C(c1ccccc1)c1cn(S(=O)(=O)CC(F)(F)F)nc1-c1cc(Cl)cc(Cl)c1 [Compound 3]	0

Tested on: oilseed rape (Brassica napus)
Experiment: as above
Type: in vivo
Conditions: Postemergence, 62 g ai/ha
Summary of the method: as §2

SMILES	Plant response rating (0 to 100), Oilseed Rape
O=C(c1ccccc1)c1cn(S(=O)(=O)CC(F)(F)F)nc1-c1cc(Cl)cc(Cl)c1 [Compound 3]	60

Same assay, conditions: Postemergence, 125 g ai/ha

SMILES	Plant response rating (0 to 100), Oilseed Rape
O=C(c1ccccc1)c1cn(S(=O)(=O)CC(F)(F)F)nc1-c1cc(Cl)cc(Cl)c1 [Compound 3]	70

Same assay, conditions: Postemergence, 250 g ai/ha; scale 0 to 100

SMILES	Plant response rating, Oilseed Rape
O=C(c1ccccc1)c1cn(S(=O)(=O)CC(F)(F)F)nc1-c1cc(Cl)cc(Cl)c1 [Compound 3]	80

Same assay, conditions: Postemergence, 500 g ai/ha; scale 0 to 100

SMILES	Plant response rating, Oilseed Rape
O=C(c1ccccc1)c1cn(S(=O)(=O)CC(F)(F)F)nc1-c1cc(Cl)cc(Cl)c1 [Compound 3]	85

Same assay, conditions: Preemergence, 62 g ai/ha

SMILES	Plant response rating, Oilseed Rape
O=C(c1ccccc1)c1cn(S(=O)(=O)CC(F)(F)F)nc1-c1cc(Cl)cc(Cl)c1 [Compound 3]	40

Same assay, conditions: Preemergence, 125 g ai/ha

SMILES	Plant response rating, Oilseed Rape
O=C(c1ccccc1)c1cn(S(=O)(=O)CC(F)(F)F)nc1-c1cc(Cl)cc(Cl)c1 [Compound 3]	80

Same assay, conditions: Preemergence, 250 g ai/ha

SMILES	Plant response rating, Oilseed Rape
O=C(c1ccccc1)c1cn(S(=O)(=O)CC(F)(F)F)nc1-c1cc(Cl)cc(Cl)c1 [Compound 3]	80

Same assay, conditions: Preemergence, 500 g ai/ha

SMILES	Plant response rating, Oilseed Rape
O=C(c1ccccc1)c1cn(S(=O)(=O)CC(F)(F)F)nc1-c1cc(Cl)cc(Cl)c1 [Compound 3]	100

Tested on: waterhemp (common waterhemp, Amaranthus rudis)
Experiment: as above
Type: in vivo
Conditions: Postemergence, 62 g ai/ha
Summary of the method: as §2

SMILES	Plant response rating (0 to 100), Waterhemp
O=C(c1ccccc1)c1cn(S(=O)(=O)CC(F)(F)F)nc1-c1cc(Cl)cc(Cl)c1 [Compound 3]	90

Same assay, conditions: Postemergence, 125 g ai/ha

SMILES	Plant response rating (0 to 100), Waterhemp
O=C(c1ccccc1)c1cn(S(=O)(=O)CC(F)(F)F)nc1-c1cc(Cl)cc(Cl)c1 [Compound 3]	90

Same assay, conditions: Postemergence, 250 g ai/ha; scale 0 to 100

SMILES	Plant response rating, Waterhemp
O=C(c1ccccc1)c1cn(S(=O)(=O)CC(F)(F)F)nc1-c1cc(Cl)cc(Cl)c1 [Compound 3]	90

Same assay, conditions: Postemergence, 500 g ai/ha; scale 0 to 100

SMILES	Plant response rating, Waterhemp
O=C(c1ccccc1)c1cn(S(=O)(=O)CC(F)(F)F)nc1-c1cc(Cl)cc(Cl)c1 [Compound 3]	95

Same assay, conditions: Preemergence, 62 g ai/ha

SMILES	Plant response rating, Waterhemp
O=C(c1ccccc1)c1cn(S(=O)(=O)CC(F)(F)F)nc1-c1cc(Cl)cc(Cl)c1 [Compound 3]	100

Same assay, conditions: Preemergence, 125 g ai/ha

SMILES	Plant response rating, Waterhemp
O=C(c1ccccc1)c1cn(S(=O)(=O)CC(F)(F)F)nc1-c1cc(Cl)cc(Cl)c1 [Compound 3]	100

Same assay, conditions: Preemergence, 250 g ai/ha

SMILES	Plant response rating, Waterhemp
O=C(c1ccccc1)c1cn(S(=O)(=O)CC(F)(F)F)nc1-c1cc(Cl)cc(Cl)c1 [Compound 3]	100

Same assay, conditions: Preemergence, 500 g ai/ha

SMILES	Plant response rating, Waterhemp
O=C(c1ccccc1)c1cn(S(=O)(=O)CC(F)(F)F)nc1-c1cc(Cl)cc(Cl)c1 [Compound 3]	100

Same assay, conditions: Preemergence; 0 to 100 scale (0 no effect, 100 complete control); rate 500 g ai/ha

SMILES	Plant response rating, Waterhemp
O=C(c1ccccc1)c1cn(S(=O)(=O)CC(F)(F)F)nc1-c1cc(Cl)cc(Cl)c1 [Compound 3]	100

Tested on: waterhemp_RES2, (ALS & HPPD resistant common waterhemp, Amaranthus rudis)
Experiment: Test E postemergence greenhouse test, plant response rating 0-100
Type: in vivo
Conditions: 31 g ai/ha, scale 0 to 100
Summary of the method: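 Resistant waterhemp biotypes grown in peat/vermiculite medium and treated postemergence at 2–18 cm height (1- to 4-leaf stage). Kept in greenhouse 14 to 21 days, then visually rated against untreated controls on a 0–100 scale (0 no effect, 100 complete control).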

SMILES	Plant response rating, Waterhemp_RES2
O=C(c1ccccc1)c1cn(S(=O)(=O)CC(F)(F)F)nc1-c1cc(Cl)cc(Cl)c1 [Compound 3]	60

Same assay, conditions: 62 g ai/ha, scale 0 to 100

SMILES	Plant response rating, Waterhemp_RES2
O=C(c1ccccc1)c1cn(S(=O)(=O)CC(F)(F)F)nc1-c1cc(Cl)cc(Cl)c1 [Compound 3]	80

Same assay, conditions: 125 g ai/ha, scale 0 to 100

SMILES	Plant response rating, Waterhemp_RES2
O=C(c1ccccc1)c1cn(S(=O)(=O)CC(F)(F)F)nc1-c1cc(Cl)cc(Cl)c1 [Compound 3]	70

Same assay, conditions: 250 g ai/ha, scale 0 to 100

SMILES	Plant response rating, Waterhemp_RES2
O=C(c1ccccc1)c1cn(S(=O)(=O)CC(F)(F)F)nc1-c1cc(Cl)cc(Cl)c1 [Compound 3]	95

Same assay, conditions: 500 g ai/ha, scale 0 to 100

SMILES	Plant response rating, Waterhemp_RES2
O=C(c1ccccc1)c1cn(S(=O)(=O)CC(F)(F)F)nc1-c1cc(Cl)cc(Cl)c1 [Compound 3]	95
